Experimental findings from patent US20220204953A1, “Mutant of Acid Phosphatase and Application Thereof” (priority 2021, published 2022) are described below.

Holding throughout (format): biochemical
What all share (details): 30° C., pH 5.0, sodium pyrophosphate, 1-1,000 mM

Assay [1] addresses T1, Pseudomonas aeruginosa acid phosphatase PaAPase variant PaAPaseMu2 (W58P/D135R), SEQ ID NO: 21 (Pseudomonas aeruginosa, UniProt A0A0D6FFE3, D159R/W82P).
T1 construct: 217 aa form
T1 sequence (A0A0D6FFE3 25-241 W82P/D159R): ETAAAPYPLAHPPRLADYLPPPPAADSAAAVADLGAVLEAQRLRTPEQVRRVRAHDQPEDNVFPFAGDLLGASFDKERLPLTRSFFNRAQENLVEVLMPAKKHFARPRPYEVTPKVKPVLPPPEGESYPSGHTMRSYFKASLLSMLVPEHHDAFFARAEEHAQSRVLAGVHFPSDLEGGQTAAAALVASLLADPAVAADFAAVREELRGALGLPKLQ
Description: Determination of kinetic parameters (phosphorylation of L-ascorbic acid to L-ascorbate-2-phosphate), Mu2. The method, then:
(§1) The activities of PaAPase and mutants thereof were determined with high-performance liquid chromatography. 500 μL of a substrate solution (500 mM L-ascorbic acid and 500 mM sodium pyrophosphate) (pH 5.0) and 5 μL of the enzyme liquid react at 30° C. for 30 min, and 95 μL of 42% phosphoric acid was added to terminate the reaction, where an activity unit was defined as the amount of enzyme required for producing 1 μmol of L-ascorbate-2-phosphate within 1 min (Table 3).
(§2) The kinetic parameters, including Vmax, Km and kcat, were calculated by measuring the generation rates of initial products of L-ascorbic acid and L-ascorbate-2-phosphate (1-1,000 mM) at different concentrations at 30° C. and under other conditions consistent with those of the determination of specific enzyme activity.

For assay [2], the target named is T2, Pseudomonas aeruginosa acid phosphatase PaAPase variant PaAPaseMu1 (D135R), SEQ ID NO: 19 (Pseudomonas aeruginosa, UniProt A0A0D6FFE3, D159R).
T2 construct: 217 aa form
T2 sequence (A0A0D6FFE3 25-241 D159R): T1 sequence (A0A0D6FFE3 25-241 W82P/D159R) with P58W
In words: Determination of kinetic parameters (phosphorylation of L-ascorbic acid to L-ascorbate-2-phosphate), Mu1. The method, then:
as §1, §2

The target in assay [3] is T3, Pseudomonas aeruginosa acid phosphatase PaAPase, wild type (WT), SEQ ID NO: 1 (Pseudomonas aeruginosa, UniProt A0A0D6FFE3).
T3 construct: 217 aa form
In words: Determination of kinetic parameters (phosphorylation of L-ascorbic acid to L-ascorbate-2-phosphate), wild type. On the procedure:
as §1, §2

Assay [4] has as its target T4, Pseudomonas aeruginosa acid phosphatase PaAPase variant PaAPaseMu3 (Q57H/W58P/D135R), SEQ ID NO: 22 (Pseudomonas aeruginosa, UniProt A0A0D6FFE3, D159R/Q81H/W82P).
T4 construct: 217 aa form
T4 sequence (A0A0D6FFE3 25-241 Q81H/W82P/D159R): T1 sequence (A0A0D6FFE3 25-241 W82P/D159R) with Q57H

Positions count from the first letter of the chain named.

T3 sequence (A0A0D6FFE3 entry or part of it): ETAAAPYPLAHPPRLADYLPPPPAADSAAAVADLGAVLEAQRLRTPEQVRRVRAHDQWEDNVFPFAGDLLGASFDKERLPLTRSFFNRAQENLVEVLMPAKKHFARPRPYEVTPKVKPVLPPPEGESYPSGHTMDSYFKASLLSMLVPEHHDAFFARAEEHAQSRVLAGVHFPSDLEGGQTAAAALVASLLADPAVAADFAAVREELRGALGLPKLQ

As a reminder, the kcat is the maximal rate divided by the concentration of active sites. For orientation: kcat/Km means the second-order rate constant that governs catalysis at low substrate concentration. On to `O=C1O[C@H]([C@@H](O)CO)C(O)=C1O` [L-ascorbic acid], for which the kcat was 19.2 s⁻¹ in assay [1], 18.7 s⁻¹ in assay [2], 16.3 s⁻¹ in assay [3] and 20.1 s⁻¹ in assay [4]. Further, the kcat/Km was found to be 86.2 M⁻¹ s⁻¹ in assay [1], 76.3 M⁻¹ s⁻¹ in assay [2], 56.3 M⁻¹ s⁻¹ in assay [3] and 95.3 M⁻¹ s⁻¹ in assay [4].
